The text below walks through data of US11717499B2 (priority 2011, dated 2023).

“Also recorded” adds a separate entry of the source. Where two headings read alike, the source gives them in different places. Marks after values point to notes of the source that are not given here.

The test system of one data set is IL-1β. Kind of data set: Immunoblot of IL-1β expression in placental tissue. Type of data set: in vivo. The conditions noted are these: DMA rescued mice vs LPS-triggered PTB mice, p<0.01. The source says:
(§1) The probe was thoroughly cleaned after each sample.
(§2) Chemifluorescence was detected by exposure to an autoradiography film.
For orientation: A western blot detects proteins with antibodies after separation by electrophoresis.

Another data set deals with TNF-α. Kind of data set: Immunoblot of TNF-α expression in placental tissue. The data set is classed as in vivo. The conditions noted are these: DMA rescued mice vs LPS-triggered PTB mice, p<0.001.
Description: as §1, §2

The next data set deals with IL-6. Kind of data set: Immunoblot of IL-6 expression in placental tissue. The conditions noted are these: DMA rescued mice vs LPS-triggered PTB mice, p<0.05. Type of data set: in vivo.
Description: as §1, §2

In another data set the test system is LPS-triggered PTB. The conditions noted are these: for Number of pups retained / Number of pups dropped: 50 mg/kg LPS. As for the experimental part: Mice were then randomly assigned to the control group or one of five treatment groups. […] Additionally, a sixth group of four animals received i.p. injections of 0.5 ml PBS in lieu of LPS at the same time points and served as sham (Table 1).
After the injection at t=10 hours, mice were continually monitored; time of delivery of the first pup and number of pups dropped over time were recorded. […] All mice were sacrificed by carbon dioxide asphyxiation. The mice were autopsied at the end of experiments to confirm pregnancy and to determine the number of pups retained in utero. Placenta and uteri were harvested and stored.

For data set [1], the system named is P450-dependent monooxygenase or phase II enzyme activities. The conditions noted are these: rat; cited from earlier work.
For data set [2] the following is noted: rats, cited from earlier work.

On to `CC(=O)N(C)C` [DMA, N,N-dimethylacetamide], for which the “IL-1β expression in placentas” value with IL-1β is reported as “significantly reduced; also recorded: suppressed”. Also, the “TNF-α expression in placentas” value in the data set with TNF-α is “suppressed”. Further, in the data set on IL-6, the “IL-6 expression in placentas” value was “suppressed”. In addition, the “Number of pups retained” value in the data set on LPS-triggered PTB (DMA 0.2 mg/kg) came to 35; in the data set with LPS-triggered PTB (DMA 0.39 mg/kg) it was 41; in the data set with LPS-triggered PTB (DMA 0.78 mg/kg), 69; in the data set on LPS-triggered PTB (DMA 1.56 mg/kg), 47; in the data set on LPS-triggered PTB (DMA 3.1 mg/kg), 52. Moreover, the “Number of pups dropped” value is on record as 12 in the data set on LPS-triggered PTB (DMA 0.2 mg/kg, n=47 pups); 0*** in the data set on LPS-triggered PTB (DMA 1.56 mg/kg, n=47 pups); 0*** in the data set with LPS-triggered PTB (DMA 3.1 mg/kg, n=52 pups). In addition, the “Prevention of PTB” value with LPS-triggered PTB (highest doses of DMA, 3.1 and 1.56 mg/kg) stood at 100%.

For the compound `CNC(C)=O` [MMA, N-monomethylacetamide], the “Induction of hepatic monooxygenases” value in data set [1] was “did not induce any hepatic monooxygenases”. In data set [2] (after 24 hours), the Plasma level result is on record as “a significant amount of MMA was still present”. Moreover, in data set [2], the Plasma half life entry is “about 2.2 hours”.
